Test results: patent US20260240822A1, “Methods and Compositions for Treating Atopic Dermatitis” (Regranion, LLC, priority 2023, published 2026)

Columns and labels:
[1] = system: p65 (subunit of NF-κB); assay: Western blot of p65 phosphorylation in stimulated NHEKs; format: cell-based, human; details: 5 μM, 1 hour
Procedure: (§1) Primary normal human epidermal keratinocytes (NHEKs) were isolated from nine healthy donors as described previously.^13 The keratinocytes were plated in 6-well plates and cultured in keratinocyte SFM (Gibco, ThermoFisher Scientific, Waltham, MA, USA) supplemented with growth factors and 5 μg/ml Gentamicin (Gibco) at 37° C. in a humidified incubator containing 5% CO2 until 60-70% confluency. Subsequently, the keratinocytes were starved for 24 hours in keratinocyte SFM medium without growth factors before the initiation of experiments.
(§2) PBS-washed keratinocytes were added cell lysis buffer with complete Protease Inhibitor Cocktail and phenylmethylsulphonyl fluoride (Sigma-Aldrich). […] The protein concentration was determined by Bradford Protein Assay.
(§3) A total of 20 μg protein extract for each sample was loaded on 10% mini-PROTEAN TGX PreCast Gel (Bio-Rad, Hercules, CA, USA) and separated by gel electrophoresis using Mini Trans-Blot Cell (Bio-Rad). […] Protein bands were detected with an enhanced chemiluminescence (ECL) reaction using Clarity Western ECL Substrate (Bio-Rad) and digitally imaged with C-DiGit Blot Scanner (LI-COR, Lincoln, NE, USA). To normalize the protein expression to β-actin levels, the membranes were stripped and reprobed with an anti-β-actin antibody (A1978; Sigma-Aldrich), which was detected by HRP-conjugated anti-mouse IgG (p0447; Dako, Glostrup, Denmark). […]

[2] = system: STAT6; assay: Western blot of STAT6 phosphorylation in stimulated NHEKs; format: cell-based, human; details: 5 μM, TNF/IL-4 stimulation, 1 hour
Procedure: as §1, §2, §3

[3] = psoriasis and hidradenitis suppurativa patients; cited from earlier work
[4] = Skin concentration in punch biopsies of hidradenitis suppurativa subjects, week 16; format: in vivo, human; details: oral dosing at 250 mg; skin (16 weeks daily) vs plasma (single dose)
Description: A 16-week treatment, randomized, double-blind, proof-of-concept study was designed to assess the safety and efficacy of Compound I compared to placebo in treating hidradenitis suppurativa. Eligible subjects completed an up-to 4-week screening phase and sequentially be randomized 2:1 to one of two cohorts, treatment cohort (n=10) or placebo-control cohort (n=5), in a 16-week treatment phase followed by a 4-week observational follow-up phase. In the 16-week treatment phase, subjects randomized to the treatment group receive 250 mg Compound I free base in the form of a tablet administered orally once daily. The 250 mg dose was selected based on the results of an earlier oncology trial conducted with doses in excess of 1000 mg/day as a safe minimal dose from which to conduct dose escalation if required. Subjects randomized to the placebo-control group receive placebo treatment once daily (microcrystalline cellulose, mannitol, crospovidone, Opadry II red, magnesium stearate, colloidal silicon dioxide).
The accumulation of Compound I in the skin of human hidradenitis suppurativa of subjects in the treatment cohort was determined. […] FIG. 7 is a graph showing the concentrations of Compound I found in the biopsied tissues in subjects grouped according to their clinical response to Compound I therapy. […]

[5] = system: MC903-induced AD-like skin inflammation; assay: MC903-induced atopic dermatitis mouse model; format: in vivo, Female Balb/cAnNRj mice; details: for body weight loss: topical treatment, MC903 model
Procedure: Punch biopsies were stored in 750 μL RNAlater-ICE (ThermoFisher) at −80° C. for 20 minutes and overnight at −20° C. Then, the biopsies were added to 175 μL SV RNA lysis buffer with β-mercaptoethanol (SV Total RNA Isolation System; Promega) followed by homogenization using TissueLyser (Qiagen, Hilden, Germany). The remaining steps including RNA purification and DNase treatment were conducted following the manufacturer's instructions.
cDNA was generated using total RNA, TaqMan Reverse Transcription Reagents with random hexamers (ThermoFisher) and Peltier Thermal Cycler-200 (MJ Research Inc, Waltham, MA, USA) following the manufacturer's instructions. Real-time PCR was carried out with 20 ng cDNA per 20 μL reaction in StepOnePlus Real-Time PCR system (ThemoFisher) using TaqMan Universal PCR Master Mix, primers and probes (ThermoFisher) for TNF (Hs00174128_m1), ILIB (Hs01555410_m1), IL6 (Hs00174131_m1), TSLP (Hs00263639_m1), CCL17 (Hs00171074_m1), CCL22 (Hs01574247_m1), Il1b (Mm00434228_m1), Il4 (Mm00445259_m1), Il6 (Mm00446190_m1), Il13 (Mm00434204_m1) RPLPO (Hs99999902_m1) and Gapdh (Mm99999915_m1). Three technical replicates for each sample underwent real-time PCR; 2 minutes at 50° C. and 10 minutes at 95° C. followed by 40 cycles of 15 seconds at 95° C. and 1 minute at 60° C. The standard curve method with StepOne Software v2.1 and reference genes (RPLPO and Gapdh) were used to obtain normalised relative expression levels of target genes.^17
Female Balb/cAnNRj (8 weeks old) mice were purchased from Janvier Labs (Le Genest-Saint-Isle, France), and housed in animal facilities at 19-25° C. with 12-hour light/dark cycles and free access to laboratory rodent diet and water. The mice had at least 1 week acclimation period before the experiments started.
Mice were randomly divided to receive: vehicle and drug-vehicle (negative control); MC903 (MedChemExpress, Monmouth Junction, NJ, USA) and drug-vehicle (disease control); MC903 and topical or oral Compound I (Compound I treatment groups); or MC903 and topical dexamethasone (positive control; purchased from Sigma-Aldrich). Four to eight mice were allocated to each group, totalling 76 mice for all experiments.
To induce AD-like skin inflammation, 1 or 2.5 nmol of MC903 in 25 μL absolute ethanol was topically applied once daily to the ventral and dorsal surface of the right ear for six consecutive days. After MC903 challenge, the mice were treated with topical Compound I (1 mg in 25 μL ethanol), oral Compound I (100 mg/kg), topical dexamethasone (20 nmol in 25 μl ethanol), or drug-vehicle (topical ethanol or oral 5% kleptose [HPB, Roquette Pharma, Lestrem, France]). The topical treatments were applied 2 hours post-MC903 challenge, whereas the oral treatments were administered by oral gavage immediately post-MC903 challenge. At the end of the experiment on day 9, clinical photos of the ears were taken and the mice were euthanised by cervical dislocation. Two punch biopsies (4 mm) from the ear were collected for RNA isolation and histological assessment. Ear thickness, the primary clinical endpoint for inflammation, was measured daily with a digital calliper (Mitutoyo Corporation, Kawasaki, Japan), and body weight was measured throughout the study to monitor the welfare of mice. During the experimental procedures, the mice were anesthetized with 2% isoflurane.
Four-millimetres punch biopsies from the ear were fixed in 4% formaldehyde overnight at 4° C., paraffin-embedded, and serially sliced into 4 μm sections subjected to staining procedures. For haematoxylin & eosin (HE) staining, a standard protocol was followed. To detect mast cells, sections were stained with 0.1% toluidine blue solution (Sigma-Aldrich) at pH 2.3 and room temperature for 3 minutes. […]

[6] = system: STAT3; assay: Western blot of STAT3 phosphorylation in stimulated NHEKs; format: cell-based, human; details: 5 μM, TNF/IFNγ or TNF/IL-4 stimulation, 1 hour
Procedure: as §1, §2, §3

[7] = system: primary normal human epidermal keratinocytes (NHEKs) stimulated with TNF/IFNγ or TNF/IL-4; assay: RT-qPCR of AD-related gene expression in cytokine-stimulated primary human keratinocytes; format: cell-based; details: 5 μM, 24 hours
Procedure: as §1
Keratinocytes were washed with phosphate-buffered saline (PBS; Gibco) followed by RNA extraction using SV 96 Total RNA Isolation System (Promega, Madison, WI, USA) per the manufacturers' instructions. NanoDrop 2000 Spectrophotometer (ThermoFisher) was used to determine the RNA concentration and purity.
cDNA was generated using total RNA, TaqMan Reverse Transcription Reagents with random hexamers (ThermoFisher) and Peltier Thermal Cycler-200 (MJ Research Inc, Waltham, MA, USA) following the manufacturer's instructions. […]
The statistical significance threshold was set at P<0.05. Differences between treatment groups in clinical endpoints, mRNA (qPCR) and protein levels (western blot) were analysed by unpaired t-tests for mice and paired t-tests for keratinocytes. […]

[8] = system: STAT1; assay: Western blot of STAT1 phosphorylation in stimulated NHEKs; format: cell-based, human; details: 5 μM, 1 hour
Procedure: as §1, §2, §3

[9] = system: stimulated NHEKs; details: previous concentration studies; used concentration 5 μM; cited from earlier work
[10] = Plasma pharmacokinetics after single oral dose in healthy male subjects; format: in vivo, human; details: single oral dose 250 mg, read-out: Cmax (median)
Procedure: The skin accumulation found in this study was compared to plasma levels of Compound I determined in a previous study in healthy human volunteers. Six healthy male subjects were given a single oral dose of 250 mg Compound I, and plasma samples were collected pre-dose and at 0.25, 0.5, 0.75, 1, 1.5, 2, 2.5, 3, 4, 6, 8, 10, 12, 18, 24, 30, 36, 48, 72 and 96 hours after dosing.

[11] = system: AD-like inflammation; assay: MC903 model at independent testing facility (alternative MC903 regimen); format: in vivo, BALB/c mice; details: oral 20, 50 and 100 mg/kg
Procedure: To evaluate the feasibility of orally administered Compound I, mice were challenged with 2.5 nmol MC903 for six days and administered 100 mg/kg Compound I by oral gavage once daily throughout the experiment.

[12] = topical, 1 nmol MC903, ear biopsies

## CN(C)c1cc2c(cc1Sc1nc3c(N)nccc3n1CCNCC(C)(C)C)OCO2 [Compound I]
[1]
  phosphorylation of p65: no significant effects
[2]
  reduction of phosphorylation of STAT6: ~ 20%
[3]
  tolerability of oral treatment: well-tolerated
[4]
  accumulation in the skin relative to plasma: approximately 100,000 fold
[5]; oral 100 mg/kg, 2.5 nmol MC903
  erythema: visibly reduced erythema
[5]; oral gavage 100 mg/kg once daily, 2.5 nmol MC903
  reduction of ear thickening compared with drug-vehicle: 28%
[5]; topical 1 mg once daily, 1 nmol MC903, day 9
  reduction in ear thickness compared with drug-vehicle: 55%
[5]; topical 1 mg once daily, 2.5 nmol MC903, day 9
  suppression of MC903-induced ear thickening: 50%
[5]
  body weight loss: significantly less weight loss compared with dexamethasone
[5]; topical, 1 nmol MC903, RNA sequencing and qPCR
  cytokine expression of Il1b, Il4, Il6 and Il13 in ear tissue compared with drug-vehicle: significantly reduced
[5]; topical, 1 nmol MC903, day 9
  erythema: visibly reduced erythema
[5]; [12]
  epidermal and dermal thickness (histology): significantly decreased
  immune cell infiltration into the skin (mast cells, Ly6g+ neutrophils, CD4+ T-cells): significantly suppressed
  total number of cells within histological sections: significantly reduced
[5]; topically delivered, summary of 1 and 2.5 nmol MC903 experiments
  reduction of ear thickness: 50-54%
[6]
  phosphorylation of STAT3: significantly suppressed
[7]; TNF/IFNγ or TNF/IL-4 stimulation, vs stimulated/vehicle- and stimulated/dexamethasone-treated NHEKs
  expression of AD-associated cytokines (TNF, IL1B, IL6) and chemokines (CCL17, CCL22): robustly inhibited the expression
[7]; stimulated NHEKs
  expression of TSLP: suppressed
[8]
  phosphorylation of STAT1: no significant effects
[9]
  toxicity in stimulated NHEKs: 3-6%
[10]
  Cmax: 46 nM
[11]
  alleviation of AD-like inflammation: dose-dependent improvement

## C[C@@H]1C[C@H]2[C@@H]3CCC4=CC(=O)C=C[C@]4(C)[C@@]3(F)[C@@H](O)C[C@]2(C)[C@@]1(O)C(=O)CO [dexamethasone, reference compound]
[5]
  body weight loss: lost significantly more weight than Compound I-treated mice
